Laboratory results: a melting point compilation (Tetko et al.; mined from patent text by program, amines drawn as free bases though some values may be those of a salt)

With O=c1c2cc(O)ccc2oc2cccc(NCCN3CCCC3)c12 the melting point was 192 to 194 °C. Cc1cc(C2=NOC(c3cc(Cl)cc(Cl)c3)(C(F)(F)F)C2)ccc1C(=O)N(C)c1cncnc1 (configuration not stated) gave a melting point of 197 to 200 °C. CCOC(=O)c1c2ccc(Cl)cc2c(-c2ccccc2)n1CCC(C)(C)CCBr gave a melting point of 87 to 88 °C. Molecule COc1cc2c(cc1F)C1(CO2)C(=O)N(Cc2ccc(C(F)(F)F)o2)c2ccccc21 (configuration not stated) has a melting point of 45 to 47 °C. Work on COc1ccc(C2=C(C#N)C(c3ccccc3Cl)c3c[nH]nc3N2)cc1 (configuration not stated) yielded a melting point of 124 °C. CCOC(=O)c1cn(CCCl)c2cc(N3CCN(C)CC3)c(F)cc2c1=O gave a melting point of 208 °C. In the case of COC(=O)[C@@]12CN(Cc3ccccc3)C[C@@H]1[C@@](O)(c1cccc(OC)c1)CC[C@H]2c1ccccc1 (racemic), the melting point is reported as 118 °C. Work on CSc1ccc(C(=O)c2cc(C)cc3c2NC(=O)C3)cc1 yielded a melting point of 176 to 178 °C. For CN1C(=NC(=O)c2ccc(F)cc2)C(C(F)(F)F)(C(F)(F)F)NC1c1ccc(F)cc1 (configuration not stated), the melting point was 132 to 133 °C. CN1CCN(c2cc3nc(C(C)(C)C)sc3cc2N=C=S)CC1 gave a melting point of 124 to 126 °C. Cc1cc(C)c2c(c1O)C(N)C(c1ccccc1)C2 (configuration not stated) gave a melting point of 135 to 136 °C. Molecule CN1CCC(c2ccc(N(C)C)cc2)(C(C)(C)O)CC1 has a melting point of 142 to 143 °C. Cn1cc(-c2cccc(Cl)c2)c(=O)c(-c2cccc(Cl)c2)c1 gave a melting point of 164 to 167 °C. CCC1c2cccn2-c2ccc(F)cc2N1C(=O)c1cccc(OC)c1 (configuration not stated) gave a melting point of 70 to 74 °C. In the case of CC(C)(C)OC(=O)N1CCC(c2nc3cc(-c4ccc(C#N)c(F)c4)ccc3o2)CC1, the melting point is reported as 138 to 142 °C. For COc1ccccc1N1CCN(Cc2ccccc2CCC(=O)O)CC1, the melting point was 155 to 158 °C. Work on CCn1c(=O)ccc2cnc(Nc3cccc(F)c3OC)nc21 yielded a melting point of 92 to 93 °C. Cc1ccccc1N1CCN(Cc2ccc(Nc3ccnc4cc(C(F)(F)F)ccc34)cc2)CC1 gave a melting point of 208 to 210 °C. In the case of CC#CCOc1ccc(S(=O)(=O)C(CCCCCC#N)C(=O)OCC)cc1 (configuration not stated), the melting point is reported as 63 °C. Molecule CCOC(=O)C(=C1CCCN1C)c1ccc([N+](=O)[O-])cc1 has a melting point of 82 to 83 °C. COc1cc2c(cc1OC)C(c1cccc([N+](=O)[O-])c1)=NN=C(C)C2 gave a melting point of 196 to 198 °C. C#CC(C)(C)NC(=O)c1cnc(N2CCC(N3C(=O)OCc4ccccc43)CC2)c(Cl)c1 gave a melting point of 135 to 138 °C. For COc1ccc(-n2nnnc2C(F)(F)F)c(OC)c1CO, the melting point was 74 to 79 °C. FC(F)(F)c1cccc2c(Cl)c3ccccc3c(Cl)c12 showed a melting point of 142 to 143 °C. Molecule Cc1cc(C)c(NC(=O)OC(C)(C)C)c(C)c1 has a melting point of 73 to 73.5 °C. Work on O=C(NCCNC(c1ccccc1)(c1ccccc1)c1ccccc1)C(CCO)NC(c1ccccc1)(c1ccccc1)c1ccccc1 (configuration not stated) yielded a melting point of 71 to 72 °C. With CCC=C1C([N+](=O)[O-])C2SCCCN2C(=O)N1C (configuration not stated) the melting point was 155 to 156 °C. For COC(=O)c1cc(OCCCCCCOc2ccc(-c3ccccc3)cc2)ccc1O, the melting point was 91 to 92 °C. For O=C(NC(=O)c1c(F)cccc1F)Nc1ccc(Oc2cccc3ccccc23)nc1, the melting point was 224 °C. O=C(NC1CCN(CCc2ccncc2)CC1)c1ccccc1 gave a melting point of 193 to 195 °C. With CCOC(=O)c1c(CN(CC)CC)nc2sc(C)c(C)c2c1-c1ccc(OC)c(OC)c1 the melting point was 110 to 111 °C. Work on Cc1ccc(-c2ccc(C(=O)Nc3cc4ncc(CN5CCCC5)cc4cc3C)c(F)c2)cc1 yielded a melting point of 176 to 179 °C. Cc1ccc(CSc2nc3cc4c(cc3[nH]2)OC(C)O4)nc1 gave a melting point of 147 to 148 °C. In the case of Cc1ccc(C)c(NS(=O)(=O)c2ccc(N3CCNC3=O)cc2)c1, the melting point is reported as 213 to 215 °C. COC(=O)c1ccnc(N2CCN(Cc3cccnc3)C2=O)c1 showed a melting point of 165 to 167 °C. Work on CNc1sc(-c2cccnc2)nc1C yielded a melting point of 84 to 87 °C. In the case of Cc1nc(N2CCN(CC(=O)NCc3ccc(F)cc3)C2=O)sc1C(=O)NCc1ccccc1, the melting point is reported as 232 to 234 °C. In the case of C=CC1(c2ccccc2)OC(C(=O)OC)Oc2ccc(Cl)cc21 (configuration not stated), the melting point is reported as 78 °C. O=C(Nc1ccccc1)NC1C(=O)N(CC2C3CC4CC(C3)CC2C4)c2ccccc2N(c2ccccc2)C1=O (configuration not stated) gave a melting point of 192 to 193 °C. CC(=O)NN=C(C(=O)NN)c1ccccc1 gave a melting point of 177 °C. Cc1cc(-n2ccc(OCc3ccccc3)cc2=O)sc1C(=O)NCc1cccnc1 showed a melting point of 165 to 167 °C. Work on O=C(COc1cccnc1)NCCCCC1CCN(C(c2ccccc2)c2ccccc2)CC1 yielded a melting point of 103 to 105 °C. For CCc1cc2c(s1)SCC1CC(=O)N(c3ccc(Cl)cc3)N=C21 (configuration not stated), the melting point was 138 to 141 °C. For COc1cc(OC)c(NC(=O)CC(C#N)c2ccccc2)c(OC)c1 (configuration not stated), the melting point was 157 to 160 °C. COc1cc2c(cc1OC)CN(c1nc(Cl)nc(N3CCc4cc(OC)c(OC)cc4C3)n1)CC2 showed a melting point of 149 to 151 °C. CC(=O)NCC(C)(C)c1ccc2nc(C)[nH]c2c1 gave a melting point of 198 to 201 °C. In the case of COC(OC)C(C)(O)c1cnc(C=O)s1 (configuration not stated), the melting point is reported as 98 to 99 °C. Work on CCCCc1nc(Cl)c(C(=O)OCC)n1Cc1ccc2oc(-c3ccccc3NS(=O)(=O)C(F)(F)F)c(Br)c2c1 yielded a melting point of 158 to 159 °C. CC1(C)CCOC1=C(Sc1ccc(Cl)cc1)n1ccnc1 showed a melting point of 134 °C. COC(=O)C1CC(O)CN1C(=O)c1cc2c(cc1[N+](=O)[O-])OCO2 (configuration not stated) showed a melting point of 166 °C. C=CCOCC1CC(N)c2cc(S(N)(=O)=O)sc2S1(=O)=O (configuration not stated) showed a melting point of 167 to 168 °C. Molecule COC1(c2cccc(Oc3nc(-c4ccccc4)c(-c4ccc(S(N)(=O)=O)cc4)o3)c2)CCOCC1 has a melting point of 145 to 147 °C. Work on FC(F)(F)COc1ccc(CCNc2ncnc3scnc23)cn1 yielded a melting point of 109 to 112 °C. For COc1ccc(Cn2nc(-c3ccc(OC)cc3)c(-c3ccc(OC)cc3)cc2=O)cc1, the melting point was 171 to 172 °C. With O=c1c2c(c3ccccc3n1-c1ccccc1)OCC2 the melting point was 195 to 197 °C. COc1ccc2nc(C)c(CCCl)c(=O)n2c1 gave a melting point of 150 °C. Molecule CCOC(=O)C=Cc1ccc([N+](=O)[O-])c(O)c1 has a melting point of 95 °C. COC(=O)Nc1cc(C(C)(C)C)on1 showed a melting point of 55.5 to 58.5 °C. In the case of Clc1ccc(-c2nc(NCc3ccccc3)c3ccccc3n2)cn1, the melting point is reported as 212 °C. For COC(=O)c1cnnc2ccccc12, the melting point was 57 to 58 °C. In the case of Cc1oc(-c2ccccc2)nc1CCOc1ccc(CCC(N)=O)cc1, the melting point is reported as 139 to 140 °C. Work on COC(=O)C1(Sc2cc(N3C(=O)C4=CCCCC4C3=O)c(F)cc2Cl)CCC1 (configuration not stated) yielded a melting point of 98 °C. For COc1ccc(Cn2cc(C(=O)NCCN(C)C)c3nc4c(C)cccc4cc3c2=O)cc1OC, the melting point was 213 to 214 °C. Work on Brc1ccc2scnc2c1 yielded a melting point of 104 to 106 °C. CSCC[C@@H](NC(=O)[C@H](Cc1ccc(O)cc1)NC(=O)OC(C)(C)C)C(=O)NCC(=O)Oc1c(Cl)c(Cl)c(Cl)c(Cl)c1Cl gave a melting point of 175 to 176 °C. In the case of COc1cc(Cc2cnc(NC(=O)Cc3ccccc3)nc2N)cc(OC)c1OC, the melting point is reported as 181 to 183 °C. For O=C(O)COc1ccc2cc(-c3cnc(Cc4ccccc4)o3)ccc2c1, the melting point was 236 to 238 °C. COc1ccc(-c2nc(SCCCSc3nc(-c4ccc(OC)cc4)c(-c4ccc(OC)cc4)[nH]3)[nH]c2-c2ccc(OC)cc2)cc1 gave a melting point of 128 to 130 °C. For Fc1ccc(Cc2ccccc2N2CCN(c3ccncc3)CC2)cc1, the melting point was 110 to 111 °C. Molecule C=CCON=C(CCC)C1=C(O)CC(c2cc(C)cs2)CC1=O (configuration not stated) has a melting point of 72 to 74 °C. Work on CCCCCCCCCCCCCCCC(=O)NC(Cc1cc(CP(=O)(O)O)cc(-c2ccccc2)c1)C(=O)O (configuration not stated) yielded a melting point of 130 to 140 °C. CCOC(=O)c1ncc2[nH]c3cccc(Oc4ccc(Cl)cn4)c3c2c1C showed a melting point of 194 to 196 °C. In the case of CC(C)Cn1c(CO)c(-c2ccc(Cl)cc2)c2cc(OCc3ccccc3)ccc2c1=O, the melting point is reported as 87 to 88 °C. In the case of CCCC1(C(=O)O)CCCCC1, the melting point is reported as 58 to 59 °C. C=CCSC(C#N)C1=NCCc2cc(OC)c(OC)cc21 (configuration not stated) gave a melting point of 146 to 147 °C. CSc1ccc([N+](=O)[O-])c2nonc12 gave a melting point of 118 to 120 °C. In the case of CC(NS(=O)(=O)N1CCOCC1)P(=O)(c1ccccc1)c1ccccc1 (configuration not stated), the melting point is reported as 215 to 217 °C. For O=C(O)c1ccccc1-n1c(-c2ccccc2)cc2c1-c1ccccc1CC2, the melting point was 170 to 185 °C. In the case of CCOC(=O)C(CC)(Cc1ccc(OCCN2CCCCC2)cc1)S(=O)(=O)c1ccc(OC)cc1 (configuration not stated), the melting point is reported as 75 °C. For Cc1cccc(NC(=O)NC(C(=O)O)C(C)C)c1 (racemic), the melting point was 170 °C. For CS(=O)(=O)NC(=O)c1ccccc1Nc1ccc(CCCc2ccc(Cl)c(Cl)c2)cc1, the melting point was 53 to 61 °C. Molecule CCOC(C)=C(C#N)C(=O)Nc1ccccc1F has a melting point of 158 to 160 °C. Work on CCCCCc1cc2c(nc(O)n2CC(C)(C)O)c(N)n1 yielded a melting point of 240 to 243 °C. For c1cncc(-c2cccn3cnnc23)c1, the melting point was 186 to 189 °C. Molecule COc1ccc(CCNC(=O)CN(C(=O)OCc2ccccc2)c2ccc(C)cc2)cc1OC has a melting point of 81 to 85 °C. Work on O=C(NCCCN1CCN(c2ncccn2)CC1)NC12CC3CC(CC(C3)C1)C2 yielded a melting point of 172 to 173 °C. Work on COc1ccc2c(c1)C(=NN1CCOC1=O)CCO2 yielded a melting point of 54 to 64 °C. COc1ccc(-c2ccnc(-c3cn(C)c(=O)n3-c3ccc(C(C)(C)C#N)cc3)c2)cc1 gave a melting point of 219 °C. Work on CC(=O)OCCSC(F)(F)C(O)(Cn1cncn1)c1ccc(F)cc1F (configuration not stated) yielded a melting point of 79 to 82 °C. C=CC(=O)N1CCSc2ccc(OC)cc2C1 showed a melting point of 79 to 81 °C. Work on CC(C)(C)OC(=O)Oc1cc2c(s1)CCN(C(C(=O)C1CC1)c1ccccc1F)C2 (configuration not stated) yielded a melting point of 98 to 99 °C. Work on C=C(Nc1nc(-c2ccccc2)c(-c2nc3ccccc3c(=O)n2-c2ccc(C)cc2)s1)c1ccco1 yielded a melting point of 231 to 232 °C. CC1(C)Cc2cc([N+](=O)[O-])cc(O)c2O1 gave a melting point of 96 to 97 °C. Molecule Cc1ccc2[nH]c(=O)c(=O)[nH]c2c1CN(C)Cc1ccccc1 has a melting point of 205 to 206 °C. Molecule COc1c(C(c2ccccc2)c2ccccc2)ccc2ccccc12 has a melting point of 119 to 121 °C. In the case of CCC(CC)Nc1c(NCc2ccc(Cl)cc2Cl)c(=O)c1=O, the melting point is reported as 210 to 211 °C. With NCCCn1c(-c2ccc(-c3ccccc3)cc2)csc1=Nc1ccccc1 the melting point was 50 to 54 °C.
